Test [1] relates to matured female SD rats. The format is in vivo, rat. To be noted: vaginal, aqueous solution with 10% citric acid at pH 2.0. As to the method:
A synthetic peptide (monoacetate.pentahydrate; (Pyr)Glu-His-Trp-Ser-Tyr-D-Leu-Leu-Arg-Pro-NH-C2 H5) was dissolved in aliquots of Clark-Lubs buffer [J. Bact. 2, (1), 109, 191(1971) [or Sorensen's buffer [Ergeb.Physiol. 12, 3931 (1912)] at pH 2-7 and each solution was supported on a piece (substantially-predetermined volume) of cotton and administered into the vaginas of rats to investigate the pH dependence of the ovulation-stimulating activity of the peptide.
Using matured female SD rats (120-150 days, body weights from 250 to 350 g), each preparation was vaginally administered during the diestrus and the animal was autopsied next morning to check for the occurrence of ovulation based on the presence or absence of ova in the ampulla.
The same peptide as that used in Example 12 was dissolved in 0.238 mol/liter aqueous solutions of various water-soluble aliphatic carboxylic acids which had been previously adjusted to pH 3.5 with small amounts of 10 N--NaOH. […]
The same peptide as used in Example 12 was employed as the active component. Citric acid was added to aliquots of phthalate buffer (pH 3.5) at the levels of addition of 1, 2, 5, 7 and 10% (W/V) and the pH of each solution was readjusted to pH 3.5 with a small amount of concentrated NaOH. […]

The subject of test [2] is rat. The test is classed as in vivo. The text has this:
In terms of ovulation-stimulating action, a 30 times increase of stimulating effect was obtained over the control (without carboxylic acid) in the case of natural type LH-RH (Table 1). […] It is clear that a given pharmacological effect can be obtained at a dose equivalent to 5.2 times the intravenous dose or 3.1 times the subcutaneous dose. […] In view of these facts, it is obvious that the vaginal administration according to this invention is a very advantageous method of medication.
Thus, to achieve a given ovulation-stimulatingactivity, the vaginal preparation according to this invention requires only 2.6 times as much of peptide as by the intravenous route and 1.7 times as much of peptide as by the subcutaneous route. The unusual effectiveness of the vaginal preparation of this invention will also be apparent in view of the fact that oral administration requires 1900 times as much of peptide as by the intravenous route, rectal administration requires 82 times the dosage by the intravenous route, and vaginal administration with the oleaginous basis (Witepsol® S55) requires 26 times as much of peptide as by the intravenous route.

Like-named read-outs stand apart in the source and are kept apart here.

For `CCNC(=O)[C@@H]1CCCN1C(=O)[C@H](CCCNC(=N)N)NC(=O)[C@H](CC(C)C)NC(=O)[C@@H](CC(C)C)NC(=O)[C@H](Cc1ccc(O)cc1)NC(=O)[C@H](CO)NC(=O)[C@H](Cc1c[nH]c2ccccc12)NC(=O)[C@H](Cc1c[nH]cn1)NC(=O)[C@@H]1CCC(=O)N1` [peptide of Example 12, (Pyr)Glu-His-Trp-Ser-Tyr-D-Leu-Leu-Arg-Pro-NH-C2 H5], the figures for the “ED50, ovulation-stimulating activity” value in test [1], in test [2] (intravenous route) and in test [2] (subcutaneous route) were 9.9 ng/100 g (body weight of rat), 3.8 ng/100 g (body weight of rat) and 5.8 ng/100 g (body weight of rat), respectively.

Source of the values: patent US4211769A, “Preparations for vaginal administration” (Takeda Chemical Industries, Ltd., priority 1977, dated 1980).
